Measurements as given in patent EP4772500A1, “NOVEL ISOXAZOLE COMPOUND AS TM4SF5-SPECIFIC INHIBITOR AND USE THEREOF” (Seoul National University R&DB Foundation, priority 2023, dated 2025).
Like-named read-outs stand apart in the source and are kept apart here.

Legend:
Human Jurkat T cells = test: T cell activation (Granzyme B, PD-1) after PMA/INO; type: cell-based; conditions: for activation by PMA/INO (Granzyme B production): PMA (10 ng/ml) and INO (1 µg/ml), 24 hours (FIG. 18a)
Procedure: (a) Human Jurkat T cells were activated by treating with PMA (10 ng/ml) and INO (1 µg/ml) for 24 hours. A non-treated state was also included as a control. […] (b) Human Jurkat T cells were either not treated or treated with PMA (25 ng/ml) and INO (1 µg/ml) for 24 hours, and IL-21 was treated at a level of 50 ng/ml for the last 6 hours. Simultaneously with the PMA/INO treatment, ST-5-002 was treated or not treated at 2.5 µM. At this time, the expression levels of Granzyme B and PD-1, or the phosphorylation of Ser473 of AKTs and Thr202/Tyr204 of ERKs, were enhanced by PMA/INO.

[1] = target: T1, Strep-TM4SF5 obtained from HEK293FT (Homo sapiens, UniProt O14894); test: Binding of 14C-labelled ST-5-002 to pulled-down Strep-TM4SF5
T1 construct: expressed in transfected cells; host or cells: HEK293FT, transient transfection (48 h); protein captured on streptavidin agarose from the cell extract
T1 sequence (O14894 1-197): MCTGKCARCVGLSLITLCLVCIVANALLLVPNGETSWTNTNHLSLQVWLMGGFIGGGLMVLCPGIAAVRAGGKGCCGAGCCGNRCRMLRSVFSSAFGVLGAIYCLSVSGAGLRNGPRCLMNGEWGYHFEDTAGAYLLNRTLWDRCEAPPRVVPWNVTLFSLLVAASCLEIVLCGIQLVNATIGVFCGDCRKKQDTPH
Procedure: For Huh7KO cells, stable cell lines were established by infecting with a retrovirus inducing the expression of pBabe-HA-EV or pBabe-HA-TM4SF5. Cell extracts were obtained, and extracts containing 0.2 or 0.25 mg of protein were reacted with an anti-HA antibody and HA-tagged TM4SF5, or with streptavidin agarose resin for Strep-PD-L1 or Strep-TM4SF5 at 4°C for 2 hours for pulldown. Subsequently, in the presence or absence of cold ST-5-002 (400 µM), the samples were treated with ^14C-labelled ST-5-002 (10 or 25 µM) and reacted at 4°C for 1 hour, after which radioactive isotope values were repeatedly measured using a TriCarb scintillation counter (PerkinElmer, Waltham, MA).
After culturing HEK293FT cells transfected with Strep-EV or Strep-TM4SF5 expression vectors, or Huh7KO cells stably expressing pBabe-HA-EV or pBabe-HA-TM4SF5, cell extracts were obtained. Extracts containing 1 mg of protein were pulled down by reacting with streptavidin agarose resin for Strep-tagged TM4SF5 or with an anti-HA antibody for HA-tagged TM4SF5 at 4°C for 4 hours. The pulled-down proteins were treated with ^14C-labelled ST-5-002 at various concentrations (10 nM, 100 nM, 1 µM, 5 µM, 10 µM, 50 µM) and reacted at 4°C for 1 hour, after which radioactive isotope values were repeatedly measured using a TriCarb scintillation counter (PerkinElmer, Waltham, MA). The EC50 was calculated by normalizing the average radioactive isotope value of TM4SF5 obtained through the measurements by dividing it by the average value of EV.
(a) Expression vectors for a control vector, TM4SF1, TM4SF5 WT, and R113Q, C118/145A, H127A, and N138A mutants of TM4SF5 were injected into the HEK293FT cell line, which was confirmed not to express TM4SF5, and allowed to express for 48 hours. (b) Huh7KO cell lines, in which TM4SF5 was knocked out in Huh7, were stably infected with a retrovirus encoding pBabe-EV or pBabe-TM4SF5-HA. […] For the experimental samples of each condition, radioactive isotope values were repeatedly measured using a TriCarb scintillation counter (PerkinElmer, Waltham, MA).

Alb-TG^Tm4sf5-Flag mice = test: DEN-induced liver cancer model in TM4SF5 transgenic animals; type: in vivo
Procedure: A liver cancer model was induced in 2-week-old male wild type (WT), Alb-TG^Tm4sf5-Flag [genetically modified animals in which Tm4sf5 expression is excessively regulated by the promoter of the Albumin gene, custom-made by Macrogen Co., Ltd.], or Tm4sf5^-/- KO C57BL/6N male animals by a single intraperitoneal injection (IP injection) of DEN (diethylnitrosamine, Sigma-Aldrich) at a concentration of 25 mg/kg, followed by raising for […]. After the DEN treatment, the animals were raised in a pathogen-free room animal facility where temperature and humidity were well controlled under a normal diet for 40 weeks. During the last 6 weeks, an isoxazole drug (dissolved in 40% DMSO) at the indicated concentration was treated by intraperitoneal injection twice a week. Forty-six weeks after the DEN injection, the animals were sacrificed, and liver tissues were analyzed through methods of tissue staining, Western blot, and qRT-PCR.
In cases where a liver cancer model is induced by treating animals with diethylnitrosamine (DEN), liver cancer formation was induced by a single intraperitoneal injection (IP injection) of DEN into 2-week-old animals, followed by raising them for 46 weeks. […] Thereafter, the animals were sacrificed, and liver tissues were obtained and analyzed. […]

Structure (SMILES) | activation by PMA/INO (Granzyme B production) (Human Jurkat T cells) | expression of Granzyme B and PD-1 (Human Jurkat T cells; PMA (25 ng/ml) and INO (1 µg/ml), 2.5 µM alone (FIG. 18b)) | level of Granzyme B (Human Jurkat T cells; PMA/INO, 2.5 µM together with IL-21 50 ng/ml (FIG. 18b)) | EC50 ([1]; 14C-labelled ST-5-002, Strep-TM4SF5, 4°C, 1 hour (FIG. 19a), read-out: EC50 of binding to TM4SF5) | binding of 14C-labelled ST-5-002 compared to the control and TM4SF1 ([1]; Strep-TM4SF5 from HEK293FT (FIG. 19a)) | EC50 ([1]; range depending on the cell source and the type of tag (Strep-TM4SF5 and HA-TM4SF5), read-out: EC50 values of binding to TM4SF5) | cancer formation (Alb-TG^Tm4sf5-Flag mice; DEN 25 mg/kg, drug 5 mg/kg IP twice a week for the final 6 weeks, Alb-TG^Tm4sf5-Flag mice (FIG. 23b)) | mRNA expressions of NK cell activating receptor factors such as SLAMF7, NKG2D, CRTAM, DNAM-1, and CD27 (Alb-TG^Tm4sf5-Flag mice; qRT-PCR of liver tissues (FIG. 23c))
Cc1ccc(C(=O)Nc2ccc(-c3cc(-c4ccc(O)cc4)no3)cc2)cc1 [ST-5-002, N-(4-(3-(4-hydroxyphenyl)isoxazole-5-yl)phenyl)-4-methylbenzamide] | further increased | further increased | even higher | 8.87 µM | bound | 0.85 to 8.8 µM |  | 
CC(=O)Nc1ccc(-c2cc(-c3ccc(O)cc3)no2)cc1 [ST-5-001, N-(4-(3-(4-hydroxyphenyl)isoxazole-5-yl)phenyl)acetamide] | further increased |  |  |  |  |  |  | 
COc1ccc(-c2cc(-c3ccc(NC(C)=O)cc3)no2)cc1 [ST-2-001, N-(4-(5-(4-methoxyphenyl)isoxazole-3-yl)phenyl)acetamide] |  |  |  |  |  |  | minimal or did not occur | partially recovered and increased
